In US20230128114A1, “METHODS AND COMPOSITIONS FOR TREATING OR PREVENTING AN INFLAMMATORY CONDITION” (priority 2020, published 2023):

Tests used:
[1] = system: LPS-induced sepsis; assay: LPS-induced sepsis in mice, intraperitoneal administration: serum immune marker panel (Luminex/ELISA); format: in vivo, C57BL/6 mice
Description: (§1) Male C57BL/6 mice weighing 10-20 g were used. Vehicle and active agents (i.e., CBD and hydroxychloroquine) alone or in combination were administered intraperitoneally (IP) (Table 4) or orally (Table 5) at 1 hour before LPS (100 μg/100 μL/mouse) injected intravenously (IV). At 2 hours after LPS injection, blood was collected from all mice by cardiac puncture, sera processed and assayed for biomarkers using either the Th17-plex for IL-1β, IL-2, IL-10, IL-12 (p70), IFN-γ and TNF-α by Luminex, plus IL-6 and D-dimer by ELISA, or the 23-plex for IL-1α, IL-1β, IL-2, IL-3, IL-4, IL-5, IL-6, IL-9, IL-10, IL-12(p40), IL-12(p70), IL-13, IL-17A, Eotaxin, G-CSF, GM-CSF, IFN-γ, KC, MCP-1(MCAF), MIP-1α, MIP-1β, RANTES, and TNF-α by Luminex, plus IL-6 by ELISA. ANOVA followed by Dunnett's test was applied for comparison between vehicle and treatment groups. p<0.05 is considered significant.

[2] = system: LPS-induced sepsis; assay: LPS-induced sepsis in mice, oral administration: serum 23-plex immune marker panel; format: in vivo, C57BL/6 mice
Description: as §1

[3] = system: LPS-induced production of inflammatory cytokines; assay: LPS-induced sepsis in mice: synergy analysis (relative inhibition of cytokine release, Excess over Bliss); format: in vivo, C57BL/6 mice; details: for IFN-γ, relative inhibition of cytokine release / IL-1β, relative inhibition of cytokine release / IL-6, relative inhibition of cytokine release / IL-12(p70), relative inhibition of cytokine release / TNF-α, relative inhibition of cytokine release: HCQ 100 mg/kg, alone or combined, observed
Description: as §1
(§2) For synergy analysis, data were baseline subtracted using the cytokine levels of sham treated mice (i.e., no LPS injection), before normalising the values for each cytokine relative to maximum values across the groups. The normalised values were used to calculate the relative inhibition where a value of 1 represents complete inhibition and a value of 0 represents no inhibition. Synergy was calculated using the statistical methods described elsewhere herein.
(§3) Drug synergy was determined using the Bliss Independence method where the predicted effect of the drug combination is calculated using the equation: […]

[4] = system: LPS-induced pulmonary inflammation; assay: LPS-induced pulmonary inflammation: BALF cytokines, synergy analysis; format: in vivo, C57BL/B6 mice; details: HCQ 25 mg/kg, alone or combined, observed; for IL-1β, relative inhibition of cytokine release (BALF) / MCP-1, relative inhibition of cytokine release (BALF) / TNF-α, relative inhibition of cytokine release (BALF): CBD 1 mg/kg; for CXCL-1, relative inhibition of cytokine release (BALF): CBD 10 mg/kg
Description: (§4) Male C57BL/B6 mice weighing 10-20 g were used. Vehicle and active agents (i.e., CBD and hydroxychloroquine) alone or in combination were administered intraperitoneally (IP) at 1 hour before LPS (˜80 mg/kg) was administered intratracheally. 24 hours after LPS injection, mice were anaesthetized with pentoparbital and 0.5 mL of PBS was administered twice through a tracheal cannula after which approximately 0.6 mL of broncheoalveolar lavage fluid (BALF) was obtained. The BALF was assayed for IL-1β, TNF-α, MCP-1(MCAF) and CXCL-1 by Luminex. ANOVA followed by Dunnett's test was applied for comparison between vehicle and treatment groups. p<0.05 was considered significant.
as §2, §3

[5] = system: LPS-induced pulmonary inflammation; assay: LPS-induced pulmonary inflammation: BALF white blood cell count; format: in vivo, C57BL/B6 mice; details: CBD 10 mg/kg, HCQ 2.5 mg/kg, alone or combined
Description: as §4
BALF collected from mice were also analysed for white blood cell (WBC) count using an automatic haematology analyser. Cell counts were normalised using sham treated mice, and analysed relative to the highest values across the groups (Table 27).

[6] = system: TNBS-induced colitis; assay: TNBS-induced colitis; format: in vivo, BALB/c mice; details: for Relative reduction in Colon to body weight ratio / Relative reduction in Total Colitis Index / Macroscopic damage score, relative reduction / Stool consistency score, relative reduction / MPO, relative reduction: HCQ 2.5 mg/kg, alone or combined; for Relative reduction in Total Colitis Index: histology of distal colon; for Macroscopic damage score, relative reduction / Stool consistency score, relative reduction / MPO, relative reduction: observed; for MPO, relative reduction: colon tissue
Description: Male BALB/c were used as an in vivo model of colitis, induced by intracolonic administration of 2,4,6-trinitrobenzene sulfonic acid (TNBS) in 50% ethanol, as previously described by Antoniou et al. (2016, Annals of Medicine and Surgery, 11: 9-15). Briefly, the ethanol disrupts the intestinal barrier, permitting TNBS to interact with colon proteins. Interaction of TNBS with high-molecular weight proteins renders them immunogenic, leading to Th1 mediated inflammation, which is causative of symptoms include inconsistent stool formation and blood in the faeces.
Vehicle and active agents (i.e., CBD and hydroxychloroquine) alone or in combination were administered intraperitoneally (IP) once a day starting from Day 1 (i.e., 24 hours before TNBS) to Day 4, for a total of 4 consecutive days (Days 1-4). On the Day of TNBS challenge (i.e., Day 2), test articles and vehicle were given 2 hrs before TNBS.
Colon tissues were harvested in all animals at termination. Colon samples were taken at 0.5, 2, and 3.5 cm from the anus, fixed in formalin, and then embedded in paraffin blocks. Four-micrometer tissue sections were cut and stained with H&E for histological analysis in accordance with the method of Dieleman et al. (1998, Clinical Experimental Immunology, 114: 385-391). Histological criteria included: abnormalities of mucosal architecture, extent of inflammation, erosion or ulceration, epithelial regeneration, and the percentage involvement by the disease process. The scoring was based on the findings of the observers by examining three sections from each colon per animal. Total score for colitis (Total Colitis Index) were added, resulting in a combined histological score range from 0 to 60.
Other endpoint measures of stool consistency score (i.e., 0—normal stools, 1, soft but still formed stools, 2—very soft stools, 3—diarrhoea), faecal occult blood score (i.e., 0-negative hemoccult, 1—positive hemoccult, 2—blood traces in stool visible, 3—rectal bleeding), colon weight, colon macroscopic damage score (a composite of adhesions, strictures, ulcers/inflammations and wall thickness) and myeloperoxidase levels in the colon tissue were also assessed. The data from each of these endpoints was baseline subtracted using the equivalent measures from sham treated mice (i.e., no TNBS) and reduction in any measure calculated as a relative reduction. Synergy was calculated using the statistical methods described elsewhere herein.

[7] = CBD 1, 5, 10, 25, 50 and 100 mg/kg IP
[8] = CBD 10 mg/kg alone, 1 = complete inhibition
[9] = hydroxychloroquine 1, 5, 10, 25, 50 and 100 mg/kg IP
[10] = hydroxychloroquine 50 and 100 mg/kg IP
[11] = hydroxychloroquine 20 mg/kg PO alone

SMILES: C=C(C)[C@@H]1CCC(C)=C[C@H]1c1c(O)cc(CCCCC)cc1O [CBD, cannabidiol]
- IFN-γ level vs vehicle group ([1]; CBD 5 mg/kg IP): Moderate reductions
- IFN-γ level vs vehicle group ([1]; CBD 10 mg/kg IP): moderate reduction
- IL-1β level vs vehicle group ([1]; CBD 10 mg/kg IP): moderate reduction
- IL-2 level vs vehicle group ([1]; CBD 10 mg/kg IP): moderate reduction
- IL-12(p70) level vs vehicle group ([1]; CBD 10 mg/kg IP): moderate reduction
- TNF-α level vs vehicle group ([1]; CBD 10 mg/kg IP): moderate reduction
- IFN-γ level vs vehicle group ([1]; CBD 25 mg/kg IP): Moderate reductions
- TNF-α level vs vehicle group ([1]; CBD 25 mg/kg IP): Moderate reductions
- IL-1β level vs vehicle group ([1]; CBD 100 mg/kg IP): significant (p<0.05) increase
- IL-10 level vs vehicle group ([1]; CBD 100 mg/kg IP): significant (p<0.05) increase
- LPS-induced D-dimer level vs vehicle control [1, 7]: dose-dependent increase
- LPS-induced IL-1β level vs vehicle control [1, 7]: dose-dependent increase
- LPS-induced IL-10 level vs vehicle control [1, 7]: dose-dependent increase
- Shape of dose response in the reduction of LPS-induced cytokine levels ([1]; CBD 1-100 mg/kg IP): bell-shaped dose response curve
- Effect on biomarker levels ([2]; CBD 1 mg/kg PO alone): little or no effect
- LPS-induced IL-1α release vs vehicle group ([2]; CBD 10 mg/kg PO alone): moderate suppression
- LPS-induced IL-1β release vs vehicle group ([2]; CBD 10 mg/kg PO alone): moderate suppression
- LPS-induced IL-2 release vs vehicle group ([2]; CBD 10 mg/kg PO alone): moderate suppression
- LPS-induced IL-4 release vs vehicle group ([2]; CBD 10 mg/kg PO alone): moderate suppression
- LPS-induced IL-5 release vs vehicle group ([2]; CBD 10 mg/kg PO alone): moderate suppression
- LPS-induced IL-9 release vs vehicle group ([2]; CBD 10 mg/kg PO alone): moderate suppression
- Relative inhibition of IFN-γ release in vivo [3, 8]: 0.00
- Relative inhibition of IL-6 release in vivo [3, 8]: 0.14
- Relative inhibition of IL-12(p70) release in vivo [3, 8]: 0.00
- Relative inhibition of TNF-α release in vivo [3, 8]: 0.00
- IFN-γ, relative inhibition of cytokine release ([3]; CBD 10 mg/kg): 0.00
- IL-1β, relative inhibition of cytokine release ([3]; CBD 10 mg/kg): 0.34
- IL-6, relative inhibition of cytokine release ([3]; CBD 10 mg/kg): 0.14
- IL-12(p70), relative inhibition of cytokine release ([3]; CBD 10 mg/kg): 0.00
- TNF-α, relative inhibition of cytokine release ([3]; CBD 10 mg/kg): 0.00
- Relative inhibition of IL-6 release in vivo ([3]; CBD 25 mg/kg alone): 0.03
- IL-6, relative inhibition of cytokine release ([3]; CBD 25 mg/kg): 0.03
- IL-1β, relative inhibition of cytokine release (BALF) [4]: 0.03
- MCP-1, relative inhibition of cytokine release (BALF) [4]: 0.07
- TNF-α, relative inhibition of cytokine release (BALF) [4]: 0.23
- CXCL-1, relative inhibition of cytokine release (BALF) [4]: 0.14
- Relative reduction in white blood cell counts: Neutrophil [5]: 0.25
- Relative reduction in white blood cell counts: WBC [5]: 0.27
- Colon tissue histology (H&E, 100×), FIG. 3 ([6]; CBD 1 mg/kg): inflammatory cell infiltration in submucosal edema
- Relative reduction in Colon to body weight ratio ([6]; CBD 1 mg/kg): 0.373
- Relative reduction in Total Colitis Index ([6]; CBD 1 mg/kg): 0.25
- Macroscopic damage score, relative reduction ([6]; CBD 1 mg/kg): 0.10
- Stool consistency score, relative reduction ([6]; CBD 1 mg/kg): 0.17
- MPO, relative reduction ([6]; CBD 1 mg/kg): 0.34

SMILES: CCN(CCO)CCCC(C)Nc1ccnc2cc(Cl)ccc12 (stereo not drawn) [HCQ]
- D-dimer level vs vehicle group [1, 9]: dose-dependent increase
- IL-10 level vs vehicle group [1, 9]: significant (p<0.05) increase
- IFN-γ level vs vehicle group [1, 10]: moderate decrease
- IL-1β level vs vehicle group [1, 10]: significant (p<0.05) decreases
- IL-2 level vs vehicle group [1, 10]: significant (p<0.05) decreases
- IL-12(p70) level vs vehicle group [1, 10]: moderate decrease
- TNF-α level vs vehicle group [1, 10]: moderate decrease
- Effect on biomarker levels ([2]; hydroxychloroquine 2 mg/kg PO alone): little or no effect
- LPS-induced IL-1α release vs vehicle group [2, 11]: moderate suppression
- LPS-induced IL-1β release vs vehicle group [2, 11]: moderate suppression
- LPS-induced IL-2 release vs vehicle group [2, 11]: moderate suppression
- LPS-induced IL-4 release vs vehicle group [2, 11]: moderate suppression
- LPS-induced IL-5 release vs vehicle group [2, 11]: moderate suppression
- LPS-induced IL-9 release vs vehicle group [2, 11]: moderate suppression
- IFN-γ, relative inhibition of cytokine release ([3]; CBD 10 mg/kg): 0.74
- IL-1β, relative inhibition of cytokine release ([3]; CBD 10 mg/kg): 0.01
- IL-6, relative inhibition of cytokine release ([3]; CBD 10 mg/kg): 0.22
- IL-12(p70), relative inhibition of cytokine release ([3]; CBD 10 mg/kg): 0.72
- TNF-α, relative inhibition of cytokine release ([3]; CBD 10 mg/kg): 0.55
- IL-6, relative inhibition of cytokine release ([3]; CBD 25 mg/kg): 0.22
- Relative inhibition of IFN-γ release in vivo ([3]; HCQ 25 mg/kg alone): 0.57
- Relative inhibition of IL-12(p70) release in vivo ([3]; HCQ 25 mg/kg alone): 0.56
- Relative inhibition of TNF-α release in vivo ([3]; HCQ 25 mg/kg alone): 0.33
- Relative inhibition of IL-6 release in vivo ([3]; HCQ 25 mg/kg alone (Table 21)): 0.17
- Relative inhibition of IL-6 release in vivo ([3]; HCQ 25 mg/kg alone (Table 23)): 0.17
- IL-1β, relative inhibition of cytokine release (BALF) [4]: 0.20
- MCP-1, relative inhibition of cytokine release (BALF) [4]: 0.09
- TNF-α, relative inhibition of cytokine release (BALF) [4]: 0.14
- CXCL-1, relative inhibition of cytokine release (BALF) [4]: 0.35
- Relative reduction in white blood cell counts: Neutrophil [5]: 0.10
- Relative reduction in white blood cell counts: WBC [5]: 0.11
- Relative reduction in Colon to body weight ratio ([6]; CBD 1 mg/kg): 0.287
- Relative reduction in Total Colitis Index ([6]; CBD 1 mg/kg): 0.27
- Macroscopic damage score, relative reduction ([6]; CBD 1 mg/kg): 0.05
- Stool consistency score, relative reduction ([6]; CBD 1 mg/kg): 0.00
- MPO, relative reduction ([6]; CBD 1 mg/kg): 0.00
- Colon tissue histology (H&E, 100×), FIG. 3 ([6]; hydroxychloroquine 2.5 mg/kg): mild abnormality, cyctic dilation and aberrant crypts
